Test [1] concerns the target Fibroblast growth factor receptor 1 (Homo sapiens, UniProt P11362).
For test [2], the target named is T1, Fibroblast growth factor receptor 4 (Homo sapiens, UniProt P22455).
For test [3], the target named is Fibroblast growth factor receptor 2 (Homo sapiens, UniProt P21802). The class given is ADME.
The target of test [4] is Fibroblast growth factor receptor 3 (Homo sapiens, UniProt P22607).
Test [5] concerns the target T1, Fibroblast growth factor receptor 4. This is another data set of the same source.
The target of test [6] is Fibroblast growth factor receptor 4 (Homo sapiens, UniProt P22455, C477A).
Chain of Fibroblast growth factor receptor 4 (Homo sapiens, UniProt P22455, C477A) (P22455 22-802 C477A limits assumed): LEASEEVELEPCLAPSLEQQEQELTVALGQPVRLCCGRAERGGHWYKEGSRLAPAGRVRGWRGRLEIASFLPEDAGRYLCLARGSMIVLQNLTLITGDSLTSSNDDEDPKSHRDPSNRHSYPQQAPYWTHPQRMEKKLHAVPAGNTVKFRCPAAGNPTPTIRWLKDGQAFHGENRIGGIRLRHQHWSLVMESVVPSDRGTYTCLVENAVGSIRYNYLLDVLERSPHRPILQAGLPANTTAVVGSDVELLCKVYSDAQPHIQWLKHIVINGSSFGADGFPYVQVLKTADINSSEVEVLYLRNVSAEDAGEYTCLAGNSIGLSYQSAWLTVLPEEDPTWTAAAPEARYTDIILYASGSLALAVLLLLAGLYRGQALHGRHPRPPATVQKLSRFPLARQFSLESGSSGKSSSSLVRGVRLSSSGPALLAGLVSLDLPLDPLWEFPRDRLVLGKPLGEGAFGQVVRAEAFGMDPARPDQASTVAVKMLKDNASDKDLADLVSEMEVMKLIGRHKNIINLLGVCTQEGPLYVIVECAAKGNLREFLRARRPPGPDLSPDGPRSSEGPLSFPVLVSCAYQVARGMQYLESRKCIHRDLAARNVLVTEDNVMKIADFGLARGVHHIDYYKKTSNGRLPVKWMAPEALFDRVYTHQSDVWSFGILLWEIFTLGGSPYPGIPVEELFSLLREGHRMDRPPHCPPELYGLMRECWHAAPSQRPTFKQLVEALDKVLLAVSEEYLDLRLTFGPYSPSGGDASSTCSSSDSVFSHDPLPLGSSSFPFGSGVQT
Test [7] concerns the target Fibroblast growth factor receptor 4 (Homo sapiens, UniProt P22455, C552A).
Test [8] addresses T2, MAP kinase-activated protein kinase 2 (Homo sapiens, UniProt P49137). The test is described as follows: Inhibition of human MK2 at 10 uM by [gamma33P]ATP assay.
Target sequence in this assay (P49137 whole entry, looked up): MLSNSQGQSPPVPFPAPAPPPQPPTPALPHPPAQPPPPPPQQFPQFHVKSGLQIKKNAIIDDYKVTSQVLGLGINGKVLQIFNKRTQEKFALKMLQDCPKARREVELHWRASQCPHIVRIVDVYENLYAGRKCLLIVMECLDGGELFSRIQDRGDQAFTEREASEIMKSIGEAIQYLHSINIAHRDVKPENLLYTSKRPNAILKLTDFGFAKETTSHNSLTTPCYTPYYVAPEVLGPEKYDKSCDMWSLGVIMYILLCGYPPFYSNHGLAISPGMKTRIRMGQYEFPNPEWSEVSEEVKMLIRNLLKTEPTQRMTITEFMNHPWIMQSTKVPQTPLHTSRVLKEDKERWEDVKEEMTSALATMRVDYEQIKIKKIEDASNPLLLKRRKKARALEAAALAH
The target of test [9] is T2, MAP kinase-activated protein kinase 2. Put plainly: Inhibition of human MK2 by [gamma33P]ATP assay.
Target sequence in this assay (P49137 whole entry): as the sequence (P49137 whole entry, looked up) above

The source made the active and inactive calls. The rule behind the calls is not given here. Some results are limits rather than exact numbers.

Chain of Fibroblast growth factor receptor 3 (P22607 whole entry): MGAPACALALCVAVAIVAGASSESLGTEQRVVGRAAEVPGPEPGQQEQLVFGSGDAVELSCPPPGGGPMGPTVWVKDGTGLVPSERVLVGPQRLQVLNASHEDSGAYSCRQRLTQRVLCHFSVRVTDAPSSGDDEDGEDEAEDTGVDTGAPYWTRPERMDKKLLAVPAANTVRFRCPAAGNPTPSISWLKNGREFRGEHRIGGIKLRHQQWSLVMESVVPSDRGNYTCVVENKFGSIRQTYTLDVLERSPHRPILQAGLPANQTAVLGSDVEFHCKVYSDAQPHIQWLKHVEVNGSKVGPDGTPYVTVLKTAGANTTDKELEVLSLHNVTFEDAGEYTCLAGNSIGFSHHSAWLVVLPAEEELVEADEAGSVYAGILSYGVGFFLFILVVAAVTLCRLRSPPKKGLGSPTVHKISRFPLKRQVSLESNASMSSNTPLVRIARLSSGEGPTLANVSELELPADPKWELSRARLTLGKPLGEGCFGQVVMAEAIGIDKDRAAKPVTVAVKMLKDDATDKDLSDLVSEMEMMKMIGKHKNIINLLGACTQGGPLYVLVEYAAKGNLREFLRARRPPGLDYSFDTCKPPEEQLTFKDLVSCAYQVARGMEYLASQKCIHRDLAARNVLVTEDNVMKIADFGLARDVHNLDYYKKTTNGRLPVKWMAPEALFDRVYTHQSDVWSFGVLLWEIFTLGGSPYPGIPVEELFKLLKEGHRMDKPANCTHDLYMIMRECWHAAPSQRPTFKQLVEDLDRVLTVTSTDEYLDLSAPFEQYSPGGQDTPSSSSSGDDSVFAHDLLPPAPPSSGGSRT
Chain of Fibroblast growth factor receptor 2 (P21802 whole entry): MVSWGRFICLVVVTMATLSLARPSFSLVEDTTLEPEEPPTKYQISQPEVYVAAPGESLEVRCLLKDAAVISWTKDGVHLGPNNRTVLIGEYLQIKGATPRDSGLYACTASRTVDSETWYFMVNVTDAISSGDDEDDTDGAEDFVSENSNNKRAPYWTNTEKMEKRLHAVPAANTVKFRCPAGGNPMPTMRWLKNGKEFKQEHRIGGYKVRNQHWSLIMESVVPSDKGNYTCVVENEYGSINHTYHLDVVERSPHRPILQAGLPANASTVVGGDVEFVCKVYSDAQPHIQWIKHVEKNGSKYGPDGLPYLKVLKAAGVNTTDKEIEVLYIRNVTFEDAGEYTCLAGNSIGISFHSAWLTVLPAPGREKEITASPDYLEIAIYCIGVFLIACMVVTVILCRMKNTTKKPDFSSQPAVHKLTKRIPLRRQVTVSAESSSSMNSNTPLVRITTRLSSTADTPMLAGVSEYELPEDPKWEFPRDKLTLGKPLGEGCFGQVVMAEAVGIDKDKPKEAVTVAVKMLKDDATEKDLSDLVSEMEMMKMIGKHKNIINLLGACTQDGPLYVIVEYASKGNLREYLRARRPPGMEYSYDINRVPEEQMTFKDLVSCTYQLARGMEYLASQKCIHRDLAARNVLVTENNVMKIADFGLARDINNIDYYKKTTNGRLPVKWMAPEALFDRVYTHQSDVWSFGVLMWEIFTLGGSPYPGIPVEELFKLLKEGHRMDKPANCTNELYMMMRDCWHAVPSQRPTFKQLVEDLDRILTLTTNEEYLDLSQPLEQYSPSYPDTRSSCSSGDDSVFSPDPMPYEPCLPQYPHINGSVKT
T1 sequence (P22455 whole entry): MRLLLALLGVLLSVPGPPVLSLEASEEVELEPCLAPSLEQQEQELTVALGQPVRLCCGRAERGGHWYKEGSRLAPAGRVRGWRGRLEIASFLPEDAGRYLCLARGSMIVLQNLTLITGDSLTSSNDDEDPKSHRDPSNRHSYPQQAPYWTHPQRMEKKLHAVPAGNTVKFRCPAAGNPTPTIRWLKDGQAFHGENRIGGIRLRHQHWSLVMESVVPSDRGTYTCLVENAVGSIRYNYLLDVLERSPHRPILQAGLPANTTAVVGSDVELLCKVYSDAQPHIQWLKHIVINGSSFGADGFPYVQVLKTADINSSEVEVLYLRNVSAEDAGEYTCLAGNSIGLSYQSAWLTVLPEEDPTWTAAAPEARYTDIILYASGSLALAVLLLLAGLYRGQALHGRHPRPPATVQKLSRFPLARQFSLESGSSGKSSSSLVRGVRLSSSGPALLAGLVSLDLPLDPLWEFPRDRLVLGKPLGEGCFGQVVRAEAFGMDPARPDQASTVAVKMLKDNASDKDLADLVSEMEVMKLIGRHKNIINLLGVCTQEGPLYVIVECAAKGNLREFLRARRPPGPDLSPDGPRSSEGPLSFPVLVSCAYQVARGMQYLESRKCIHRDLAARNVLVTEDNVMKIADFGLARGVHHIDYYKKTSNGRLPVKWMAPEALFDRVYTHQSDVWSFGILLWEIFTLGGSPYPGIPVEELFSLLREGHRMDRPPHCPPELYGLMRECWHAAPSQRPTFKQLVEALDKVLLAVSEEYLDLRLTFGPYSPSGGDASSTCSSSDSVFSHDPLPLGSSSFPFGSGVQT
Chain of Fibroblast growth factor receptor 1 (P11362 whole entry): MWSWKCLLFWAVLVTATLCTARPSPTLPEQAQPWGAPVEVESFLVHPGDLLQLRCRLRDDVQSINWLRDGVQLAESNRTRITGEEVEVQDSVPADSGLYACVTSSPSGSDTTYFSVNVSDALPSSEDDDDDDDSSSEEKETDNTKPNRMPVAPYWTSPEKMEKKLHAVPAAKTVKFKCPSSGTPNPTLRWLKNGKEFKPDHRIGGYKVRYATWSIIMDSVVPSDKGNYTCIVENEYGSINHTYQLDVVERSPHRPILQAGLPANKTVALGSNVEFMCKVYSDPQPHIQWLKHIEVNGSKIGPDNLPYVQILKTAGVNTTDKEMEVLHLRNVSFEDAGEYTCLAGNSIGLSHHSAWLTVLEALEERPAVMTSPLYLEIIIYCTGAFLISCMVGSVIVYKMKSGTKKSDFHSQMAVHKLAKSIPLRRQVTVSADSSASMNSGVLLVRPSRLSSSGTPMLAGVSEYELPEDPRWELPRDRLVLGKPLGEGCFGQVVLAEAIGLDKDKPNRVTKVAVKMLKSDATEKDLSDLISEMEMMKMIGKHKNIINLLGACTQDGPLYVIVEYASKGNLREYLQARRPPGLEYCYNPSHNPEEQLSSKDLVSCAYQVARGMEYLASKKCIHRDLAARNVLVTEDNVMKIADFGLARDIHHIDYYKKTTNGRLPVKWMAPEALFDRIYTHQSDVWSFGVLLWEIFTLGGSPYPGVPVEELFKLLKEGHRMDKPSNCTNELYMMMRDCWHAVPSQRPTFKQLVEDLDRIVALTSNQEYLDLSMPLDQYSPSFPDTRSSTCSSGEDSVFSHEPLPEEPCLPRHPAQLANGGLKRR
Chain of Fibroblast growth factor receptor 4 (Homo sapiens, UniProt P22455, C552A) (P22455 22-802 C552A limits assumed): as the sequence (P22455 22-802 C477A limits assumed) above, with A456C, C531A counted along it

Take `CC(C)Oc1cc(N2CCC(N3CCN(C)CC3)CC2)ccc1Nc1ncc(Cl)c(Nc2ccccc2S(=O)(=O)C(C)C)n1`: the IC50 in test [1] worked out at 6.35 µM; in test [2], 0.029 µM; in test [3], 4.43 µM; in test [4], 8 µM.
As to `O=[N+]([O-])c1ccc(Cl)nc1Nc1ncc(C(F)(F)F)cc1Cl`, the IC50 in test [1], in test [3] and in test [4] was above 10 µM each time.
`C=CC(=O)Nc1cccc(C)c1Nc1ncc2cc(-c3c(Cl)c(OC)cc(OC)c3Cl)ccc2n1`: the IC50 stood at 3.2 µM in test [1], 1.7 µM in test [3] and 0.78 µM in test [4].
On to `O=Cc1ccc2cccc(C(=O)Nc3ccc(C(F)(F)F)cc3)c2n1`, for which the IC50 in test [5], in test [6] and in [7] was above 10 µM each time.
Consider `O=Cc1ccc2cccc(C(=O)Nc3ccc(C(F)(F)F)cn3)c2n1`, for which the half-inhibitory concentration (IC50) in test [1] was above 10 µM; in [3], above 10 µM; in [9] it was 2.3 µM; in test [4], above 10 µM. Further, the inhibition result in [8] was “Active”.
As for `CC(C)COc1cc(N2CCC(N(C)C)CC2)ccc1Nc1ncc(C#N)c(N[C@H]2[C@@H](C(N)=O)[C@@H]3C=C[C@H]2C3)n1`, the IC50 in test [3] was found to be 0.363 µM; in test [4], 3.5 µM.
In the case of `O=C(Nc1ccc(C(F)(F)F)cn1)c1cccc2cccnc12`, the half-inhibitory concentration (IC50) in [5], in test [6] and in test [7] was above 10 µM each time.

The IC50 is the concentration needed to halve the response being measured. Read a low IC50 as inhibition by little substance.

For the origin of these results see ChEMBL document CHEMBL4261540, “Approaches to selective fibroblast growth factor receptor 4 inhibition through targeting the ATP-pocket middle-hinge region” (Medchemcomm, 2017).
